Results from ChEMBL document CHEMBL3400029, “Xanthones from the roots of Maclura cochinchinensis var. gerontogea and their retinoic acid receptor-α agonistic activity” (Bioorg Med Chem Lett, 2015).
Calls of active or inactive are those of the source. No cut-off for these calls is given here.

Assays:
Assay type in all cases: cell-based
[1] = target: T1, Retinoic acid receptor alpha (Homo sapiens) (UniProt P10276); test: Agonist activity at RARalpha (unknown origin) expressed in HEK293 cells assessed as transcriptional activation at 1 uM after 48 hrs by luciferase reporter gene assay
T1 sequence (whole entry): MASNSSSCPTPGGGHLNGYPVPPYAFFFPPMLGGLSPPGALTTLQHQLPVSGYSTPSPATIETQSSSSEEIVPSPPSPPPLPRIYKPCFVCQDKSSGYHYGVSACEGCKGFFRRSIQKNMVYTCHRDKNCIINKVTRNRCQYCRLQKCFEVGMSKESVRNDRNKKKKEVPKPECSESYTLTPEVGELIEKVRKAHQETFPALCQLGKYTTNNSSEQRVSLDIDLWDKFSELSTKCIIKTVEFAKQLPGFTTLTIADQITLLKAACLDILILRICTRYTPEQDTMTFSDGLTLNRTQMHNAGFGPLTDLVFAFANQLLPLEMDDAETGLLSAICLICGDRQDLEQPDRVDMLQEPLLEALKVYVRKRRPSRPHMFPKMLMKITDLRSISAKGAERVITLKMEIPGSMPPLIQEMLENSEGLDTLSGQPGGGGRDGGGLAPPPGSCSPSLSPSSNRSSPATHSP

[2] = target: T2, Retinoic acid receptor alpha (Homo sapiens, UniProt P10276); test: Agonist activity at RARalpha (unknown origin) expressed in HEK293 cells assessed as transcriptional activation after 48 hrs by luciferase reporter gene assay in presence of bexarotene
T2 sequence (P10276 whole entry): T1 sequence (whole entry)

[3] = target: T1, Retinoic acid receptor alpha (Homo sapiens); test: (§1) Agonist activity at RARalpha (unknown origin) expressed in HEK293 cells assessed as transcriptional activation after 48 hrs by luciferase reporter gene assay
[4] = target: T2, Retinoic acid receptor alpha; test: as §1
[5] = system: HEK293; test: Cytotoxicity against HEK293 cells at > 1 uM; details: human

Row | Compound | Activity [1] | EC50 [2] | Activity [3] | EC50 [4] | Activity [5]
1 | CC(C)=CCc1c(O)ccc2oc3c4c(cc(O)c3c(=O)c12)OC(C)(C)C=C4 | Active | 200 nM | Dose-dependent effect | 110 nM | 
2 | C=CC(C)(C)c1c(O)cc2oc3c(O)c4c(cc3c(=O)c2c1O)C=CC(C)(C)O4 [GERONTOXANTHONE B] | Active | 2000 nM | Dose-dependent effect | 1700 nM | 
3 | CC1Oc2cc3oc4c(O)c5c(cc4c(=O)c3c(O)c2C1(C)C)C=CC(C)(C)O5 (stereo not drawn) [GERONTOXANTHONE A] | Active | 200 nM | Dose-dependent effect | 170 nM | 
4 | CC1(C)C=Cc2c(cc(O)c3c(=O)c4c5c(ccc4oc23)OC(C(C)(C)O)C5)O1 (stereo not drawn) | Active | 170 nM | Dose-dependent effect | 65 nM | 
5 | CC(C)=CCc1c(O)cc(O)c2c(=O)c3c(CC=C(C)C)c(O)ccc3oc12 [GERONTOXANTHONE H] | Active |  |  |  | Toxic
